In patent US7202049B2, “Mitogen-activated protein kinase p38-2 and methods of use therefor” (Signal Pharmaceuticals, Inc., priority 1996, dated 2007):

System: p38-2
Test: Immune complex kinase assay of HA-tagged p38-2 from transiently transfected COS cells, GST-ATF2 substrate
Type: cell-based, human
From the text: An expression vector encoding epitope-tagged p38-2 (3×HA-p38-2-SRα3) was constructed by adding sequence encoding three copies of a 10 amino acid hemagglutinin (HA) epitope to the N-terminus of p38-2 and ligating the resulting cDNA into the expression vector SRα3. To investigate the pattern of regulation of p38-2, COS cells were transiently transfected with HA-p38-2-SRα3 (as described above) by the DEAE-Dextran method (Kawai and Nishizawa, Mol. Cell. Biol. 4:1172–1174, 1984).
Following treatment, cell lysates were prepared by solubilization in lysis buffer as described (Derijard et al., Cell 76:1025–1037, 1994), and protein concentration of lysates was determined by Bradford assay (Bradford, Ann Biochem. 72:248–254, 1976). Cell lysates were used in an immune complex kinase assay with GST-ATF2 substrate, prepared as previously described (Gupta et al., Science 267:389–39, 1995). The assay was generally performed as described previously (Derijard et al., Cell 76:1025–1037, 1994; Lin et al., Science 268:286–290, 1995) with minor modifications. The concentration of [γ-^32P]ATP was 50 nM, and 30 μg cell lysate was immunoprecipitated for 2 hours with the anti-HA antibody 12CA5 (Boehringer-Mannheim Corp., Indianapolis, Ind.) and then incubated with 1 μg of recombinant substrate.

SMILES	increase in p38-2 activity (ATF2 phosphorylation)	induction of p38-2 (kinase activity, ATF2 phosphorylation) (COS cells transfected with HA-p38-2, anisomycin 50 ng/mL for 45 minutes)
[Cl-].[Na+] [NaCl]	No increase	–
COc1ccc(C[C@H]2NC[C@H](O)[C@H]2OC(C)=O)cc1 [anisomycin]	–	strong induction
